According to ChEMBL document CHEMBL1201862, “PubChem BioAssay data set” (2004):
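Growth conditions: 96-well plates. Treatment: test compound, 48 hours, 5 concentrations. Analysis: linear interpolation between bracketing concentrations; unreached endpoints set to highest concentration. GI50 marks 50% less growth.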 Calls of active or inactive are those of the source. Rule as the data show it: active = GI50 up to about 1.1 µM and inactive = higher.

Key:
Assay in all cases: inhibition of tumour cell growth, NCI panel, 48 h
SNB-78 = test system: SNB-78
SR = test system: SR
DMS-114 = test system: DMS-114
HCC 2998 = test system: HCC 2998
HCT-15 = test system: HCT-15
M14 = test system: M14
OVCAR-8 = test system: OVCAR-8
LOX IMVI = test system: LOX IMVI
SN12C = test system: SN12C
TK-10 = test system: TK-10
OVCAR-3 = test system: OVCAR-3
SK-MEL-28 = test system: SK-MEL-28
SW-620 = test system: SW-620
HT-29 = test system: HT-29
A498 = test system: A498
HCT-116 = test system: HCT-116
786-0 = test system: 786-0
NCI-H226 = test system: NCI-H226
RXF 393 = test system: RXF 393
MCF7 = test system: MCF7

SMILES	GI50 (SNB-78)	GI50 (SR)	GI50 (DMS-114)	GI50 (HCC 2998)	GI50 (HCT-15)	GI50 (M14)	GI50 (OVCAR-8)	GI50 (LOX IMVI)	GI50 (SN12C)	GI50 (TK-10)	GI50 (OVCAR-3)	GI50 (SK-MEL-28)	GI50 (SW-620)	GI50 (HT-29)	GI50 (A498)	GI50 (HCT-116)	GI50 (786-0)	GI50 (NCI-H226)	GI50 (RXF 393)	GI50 (MCF7)
CCOC(=O)C1=C(C)N2CCOC2(C)C(C(=O)OC)C1c1cccc(Cl)c1 (stereo not drawn)	> 100 µM (inactive)	> 100 µM (inactive)	54 µM (inactive)	> 100 µM (inactive)	> 100 µM	> 100 µM (inactive)	> 100 µM (inactive)	> 100 µM (inactive)	> 100 µM (inactive)	> 100 µM (inactive)	> 100 µM (inactive)	> 100 µM (inactive)	> 100 µM (inactive)	> 100 µM (inactive)	> 100 µM (inactive)	> 100 µM (inactive)	> 100 µM (inactive)	–	–	–
CCCn1c(SCC)c2ccccc2c1-c1nc(F)nc(F)n1	> 100 µM (inactive)	> 100 µM (inactive)	> 100 µM (inactive)	> 100 µM (inactive)	> 100 µM	> 100 µM (inactive)	–	> 100 µM (inactive)	> 100 µM (inactive)	> 100 µM (inactive)	> 100 µM (inactive)	> 100 µM (inactive)	> 100 µM (inactive)	> 100 µM (inactive)	> 100 µM (inactive)	> 100 µM (inactive)	> 100 µM (inactive)	> 100 µM (inactive)	> 100 µM (inactive)	–
CC(=O)OCC(=O)[C@@]12OC(C)(C)O[C@@H]1C[C@H]1[C@@H]3CC(C=O)=C4C=C(OCCCl)CC[C@]4(C)[C@@]3(F)[C@@H](O)C[C@@]12C [FORMOCORTAL]	15 µM (inactive)	13 µM (inactive)	> 100 µM (inactive)	15.3 µM (inactive)	11.6 µM	20.6 µM (inactive)	12.9 µM (inactive)	25.8 µM (inactive)	13.3 µM (inactive)	33.9 µM (inactive)	25.9 µM (inactive)	19 µM (inactive)	39 µM (inactive)	12.5 µM (inactive)	21.9 µM (inactive)	10.4 µM (inactive)	16.1 µM (inactive)	17.3 µM (inactive)	5.93 µM (inactive)	–
CCN1C(=O)N(C)C(O)c2c1nc1ccccn1c2=O (stereo not drawn)	28.1 µM (inactive)	29.1 µM (inactive)	7.4 µM (inactive)	20.3 µM (inactive)	32.2 µM	32.1 µM (inactive)	18.9 µM (inactive)	17.5 µM (inactive)	23.3 µM (inactive)	22.1 µM (inactive)	26.1 µM (inactive)	27.4 µM (inactive)	35.9 µM (inactive)	27.6 µM (inactive)	25.6 µM (inactive)	28.6 µM (inactive)	28.5 µM (inactive)	60.7 µM (inactive)	23 µM (inactive)	–
N/C(=N\O)N/N=C/c1cccc(F)c1	> 100 µM (inactive)	21.9 µM (inactive)	22.9 µM (inactive)	84.9 µM (inactive)	50.9 µM	21.2 µM (inactive)	33 µM (inactive)	26.8 µM (inactive)	44.2 µM (inactive)	66.5 µM (inactive)	75.2 µM (inactive)	> 100 µM (inactive)	75.2 µM (inactive)	30.4 µM (inactive)	40 µM (inactive)	41.6 µM (inactive)	30.4 µM (inactive)	21 µM (inactive)	24.8 µM (inactive)	–
c1ccc(SCCP(CCP(c2ccccc2)c2ccccc2)c2ccccc2)cc1 (stereo not drawn)	2.22 µM (inactive)	–	10.2 µM (inactive)	12.2 µM (inactive)	17.7 µM	10.5 µM (inactive)	3.06 µM (inactive)	–	4.09 µM (inactive)	12.1 µM (inactive)	3.88 µM (inactive)	21.3 µM (inactive)	13.3 µM (inactive)	3.47 µM (inactive)	–	1.89 µM (inactive)	4.57 µM (inactive)	23.1 µM (inactive)	3.9 µM (inactive)	14.1 µM (inactive)
Cc1nc2c(C)c3c([nH]c4ccc(Cl)cc43)c(C)c2c(O)c1C	> 100 µM (inactive)	2.19 µM (inactive)	19.8 µM (inactive)	6.46 µM (inactive)	3.21 µM	10.9 µM (inactive)	4.88 µM (inactive)	4.06 µM (inactive)	5.24 µM (inactive)	7.33 µM (inactive)	7.94 µM (inactive)	10.8 µM (inactive)	7.52 µM (inactive)	4.37 µM (inactive)	15.3 µM (inactive)	4.29 µM (inactive)	3.99 µM (inactive)	4.82 µM (inactive)	–	2.2 µM (inactive)
